Test results from ChEMBL document CHEMBL4321782, “Gasdermin D (GSDMD) as a new target for the treatment of infection” (Medchemcomm, 2019).
Residues, ends and D or L forms follow the SMILES beside them. *: point of attachment. Cbz = O=C(OCc1ccccc1)*; CH2F = FC*

What was measured:
[1] = target: T1, Gasdermin-D (Homo sapiens) (UniProt P57764); assay: Inhibition of human GSDMD expressed in HEK293 cells assessed as inhibition of GSDMD -induced lethality; assay type: cell-based
T1 sequence (whole entry): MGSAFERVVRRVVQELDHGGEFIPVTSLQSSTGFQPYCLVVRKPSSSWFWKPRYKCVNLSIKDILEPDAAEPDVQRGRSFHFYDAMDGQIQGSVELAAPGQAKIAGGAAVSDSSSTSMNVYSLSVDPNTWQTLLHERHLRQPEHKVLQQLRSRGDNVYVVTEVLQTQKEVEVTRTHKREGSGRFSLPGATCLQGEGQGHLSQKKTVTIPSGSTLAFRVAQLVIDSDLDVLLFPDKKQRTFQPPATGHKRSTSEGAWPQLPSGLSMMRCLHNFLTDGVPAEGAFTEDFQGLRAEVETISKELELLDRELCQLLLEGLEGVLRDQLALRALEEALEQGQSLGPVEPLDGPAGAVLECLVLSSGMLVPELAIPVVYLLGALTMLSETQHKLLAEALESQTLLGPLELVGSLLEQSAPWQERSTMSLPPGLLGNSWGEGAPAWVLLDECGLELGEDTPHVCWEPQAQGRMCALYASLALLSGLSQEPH

[2] = target: T2, Gasdermin-D (Mus musculus) (UniProt Q9D8T2); assay: Inhibition of mouse GSDMD expressed in HEK293 cells assessed as inhibition of GSDMD -induced lethality; assay type: cell-based
T2 sequence (whole entry): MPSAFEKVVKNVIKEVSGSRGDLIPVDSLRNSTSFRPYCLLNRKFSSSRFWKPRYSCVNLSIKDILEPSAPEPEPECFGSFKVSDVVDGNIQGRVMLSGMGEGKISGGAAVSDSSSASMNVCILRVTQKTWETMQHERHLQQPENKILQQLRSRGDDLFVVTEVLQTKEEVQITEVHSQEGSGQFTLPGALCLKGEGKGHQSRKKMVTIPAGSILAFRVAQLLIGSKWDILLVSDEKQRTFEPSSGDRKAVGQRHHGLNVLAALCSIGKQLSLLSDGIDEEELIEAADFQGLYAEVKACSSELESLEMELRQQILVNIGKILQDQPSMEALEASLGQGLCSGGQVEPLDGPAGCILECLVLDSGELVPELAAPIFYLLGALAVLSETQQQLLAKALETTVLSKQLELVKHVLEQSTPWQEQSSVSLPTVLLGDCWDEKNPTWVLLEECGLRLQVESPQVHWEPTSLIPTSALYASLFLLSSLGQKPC

[3] = target: T1, Gasdermin-D (Homo sapiens); assay: Inhibition of GSDMD in LPS-induced human monocyte/macrophages assessed as inhibition of pyroptosis by fluorogenic liposome leakage assay; conditions: concentration not given here
[4] = target: T2, Gasdermin-D (Mus musculus); assay: Inhibition of GSDMD in LPS-induced mouse monocyte/macrophages assessed as inhibition of pyroptosis by fluorogenic liposome leakage assay; conditions: concentration not given here

Row | SMILES | INH [1] [µM] | INH [2] [µM] | inhibition [3] [%] | inhibition [4] [%]
1 | COc1ccccc1-c1cc2n(n1)Cc1ccc(NC(C)=O)cc1OC2 | 1 | 5 | – | –
2 | Cc1ccc(S(=O)(=O)/C=C/C#N)cc1 | – | – | > 50 | > 50
3 | CC(C)[C@H](NC(=O)OCc1ccccc1)C(=O)N[C@@H](C)C(=O)N[C@@H](CC(=O)O)C(=O)CF (Cbz-Val-Ala-Asp-CH2F) | – | – | > 50 | > 50
